Data from PubChem BioAssay AID1963871 (Molecular Pharmacology Branch, DTP, NCI, 2024).

Tested on: KRAS-mutant PDC multicell tumor spheroid viability
Assay: Anticancer human tumor 521955-158-R2-J5-PDC patient-derived pancreatic carcinoma cell line growth inhibition [KRAS2]
Details: for viability, T/C: stronger effect = lower value; active = viability on the fitted dose curve at most 10% of control; inactive = the rest
Method in brief: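 KRAS-mutant tumor cells were grown as spheroids with HUVEC endothelial cells and human MSCs as stroma. Targeted agents were tested alone and with KRAS pathway inhibitors. Doses started at or near clinical Cmax, or 10 microM, descending half-log.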

[1] = curve of first compound, second compound 0.1 µM
[2] = curve of first compound, second compound 0.316 µM
[3] = curve of first compound, second compound 1 µM
[4] = curve of first compound, second compound 3.16 µM
[5] = curve of first compound, second compound 10 µM
[6] = second compound 0.1 µM, first compound 0.01 µM
[7] = second compound 0.1 µM, first compound 0.0316 µM
[8] = second compound 0.1 µM, first compound 0.1 µM
[9] = second compound 0.316 µM, first compound 0.01 µM
[10] = second compound 0.316 µM, first compound 0.0316 µM
[11] = second compound 0.316 µM, first compound 0.1 µM
[12] = second compound 1 µM, first compound 0.01 µM
[13] = second compound 1 µM, first compound 0.0316 µM
[14] = second compound 1 µM, first compound 0.1 µM
[15] = second compound 3.16 µM, first compound 0.01 µM
[16] = second compound 3.16 µM, first compound 0.0316 µM
[17] = second compound 3.16 µM, first compound 0.1 µM
[18] = second compound 10 µM, first compound 0.01 µM
[19] = second compound 10 µM, first compound 0.0316 µM
[20] = second compound 10 µM, first compound 0.1 µM
[21] = second compound 0.1 µM, first compound 0.316 µM
[22] = second compound 0.1 µM, first compound 1 µM
[23] = second compound 0.1 µM, first compound 3.16 µM
[24] = second compound 0.316 µM, first compound 0.316 µM
[25] = second compound 0.316 µM, first compound 1 µM
[26] = second compound 0.316 µM, first compound 3.16 µM
[27] = second compound 1 µM, first compound 0.316 µM
[28] = second compound 1 µM, first compound 1 µM
[29] = second compound 1 µM, first compound 3.16 µM
[30] = second compound 3.16 µM, first compound 0.316 µM
[31] = second compound 3.16 µM, first compound 1 µM
[32] = second compound 3.16 µM, first compound 3.16 µM
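Also: viability read after seven days of drug exposure.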

CC(C)n1nc(-c2ccc3oc(N)nc3c2)c2c(N)ncnc21 + CC1OCC2(CCN(c3cnc(Sc4ccnc(N)c4Cl)c(N)n3)CC2)C1N
0.359 nM: IC50 [3]
3.52 nM: IC50 [2]
< 0.316 nM: IC50 [4] | IC50 [5]
6.21 nM: IC50 [1]
inactive: viability, T/C (second compound 0.1 µM, first compound 0.000316 µM) 71.5% | viability, T/C (second compound 0.1 µM, first compound 0.001 µM) 71.4% | viability, T/C (second compound 0.1 µM, first compound 0.00316 µM) 56.5% | viability, T/C [6] 44.2% | viability, T/C [7] 32.8% | viability, T/C [8] 24.6% | viability, T/C (second compound 0.316 µM, first compound 0.000316 µM) 59.1% | viability, T/C (second compound 0.316 µM, first compound 0.001 µM) 57.7% | viability, T/C (second compound 0.316 µM, first compound 0.00316 µM) 51.2% | viability, T/C [9] 39.5% | viability, T/C [10] 31.2% | viability, T/C [11] 25.2% | viability, T/C (second compound 1 µM, first compound 0.000316 µM) 48.9% | viability, T/C (second compound 1 µM, first compound 0.001 µM) 50.8% | viability, T/C (second compound 1 µM, first compound 0.00316 µM) 45% | viability, T/C [12] 36.9% | viability, T/C [13] 28.1% | viability, T/C [14] 21.6% | viability, T/C (second compound 3.16 µM, first compound 0.000316 µM) 47.5% | viability, T/C (second compound 3.16 µM, first compound 0.001 µM) 50.8% | viability, T/C (second compound 3.16 µM, first compound 0.00316 µM) 37.8% | viability, T/C [15] 29.4% | viability, T/C [16] 23.4% | viability, T/C [17] 19.3% | viability, T/C (second compound 10 µM, first compound 0.000316 µM) 47.7% | viability, T/C (second compound 10 µM, first compound 0.001 µM) 50.1% | viability, T/C (second compound 10 µM, first compound 0.00316 µM) 41.2% | viability, T/C [18] 28.4% | viability, T/C [19] 24.6% | viability, T/C [20] 19.6%

COc1cc2nc(C)nc(NC(C)c3cc(N)cc(C(F)(F)F)c3)c2cc1OC1CCOC1 (stereo not drawn)
inactive: viability, T/C (compound 0.1 µM) 87.8% [middle of 17 runs]
> 10000 nM: IC50 (compound alone, run of 08/26/2021) | IC50 (compound alone, run of 09/02/2021)

CC1COCCN1c1cc(-c2ccnn2C)c2ccnc(-c3ccn[nH]3)c2n1 (stereo not drawn) + CNCc1ccccc1-c1csc(C(C)Nc2nc(C)nc3cc(OC)c(OC)cc23)c1
active: viability, T/C [15] 0.3% | viability, T/C [16] 0.11% | viability, T/C [17] 0.07% | viability, T/C [30] 0.06% | viability, T/C [31] 0.08% | viability, T/C [32] 0.33% | viability, T/C [18] 0.14% | viability, T/C [19] 0.15% | viability, T/C [20] 0.13% | viability, T/C (second compound 10 µM, first compound 0.316 µM) 0.13% | viability, T/C (second compound 10 µM, first compound 1 µM) 0.12% | viability, T/C (second compound 10 µM, first compound 3.16 µM) 0.22%
30.5 nM: IC50 [1]
< 10 nM: IC50 [4] | IC50 [5]
23.8 nM: IC50 [2]
22.1 nM: IC50 [3]
inactive: viability, T/C [6] 101% | viability, T/C [7] 48.3% | viability, T/C [8] 11.4% | viability, T/C [21] 13.6% | viability, T/C [22] 20.8% | viability, T/C [23] 29.5% | viability, T/C [9] 95.9% | viability, T/C [10] 35% | viability, T/C [11] 12.4% | viability, T/C [24] 11.7% | viability, T/C [25] 20.7% | viability, T/C [26] 25.9% | viability, T/C [12] 105% | viability, T/C [13] 25.3% | viability, T/C [14] 8.4% | viability, T/C [27] 11.7% | viability, T/C [28] 21.2% | viability, T/C [29] 22.9%

COc1cc2nccc(Oc3ccc(NC(=O)C4(C(=O)Nc5ccc(F)cc5)CC4)cc3)c2cc1OC + C=CC(=O)N1CCN(c2nc(OCC3CCCN3C)nc3c2CCN(c2cccc4cccc(C)c24)C3)CC1CC#N
8200 nM: IC50 (curve of first compound, second compound 0.0316 µM)
< 31.6 nM: IC50 [4]
2680 nM: IC50 [3]
active: viability, T/C [31] 4.13% | viability, T/C [32] 0.96% | viability, T/C (second compound 3.16 µM, first compound 10 µM) 0.26%
inactive: viability, T/C (second compound 0.0316 µM, first compound 0.0316 µM) 111% | viability, T/C (second compound 0.0316 µM, first compound 0.1 µM) 112% | viability, T/C (second compound 0.0316 µM, first compound 0.316 µM) 126% | viability, T/C (second compound 0.0316 µM, first compound 1 µM) 124% | viability, T/C (second compound 0.0316 µM, first compound 3.16 µM) 94.6% | viability, T/C (second compound 0.0316 µM, first compound 10 µM) 40.7% | viability, T/C [7] 105% | viability, T/C [8] 108% | viability, T/C [21] 118% | viability, T/C [22] 116% | viability, T/C [23] 94.1% | viability, T/C (second compound 0.1 µM, first compound 10 µM) 36.7% | viability, T/C [10] 89.9% | viability, T/C [11] 113% | viability, T/C [24] 108% | viability, T/C [25] 97.9% | viability, T/C [26] 82.7% | viability, T/C (second compound 0.316 µM, first compound 10 µM) 31.7% | viability, T/C [13] 86.2% | viability, T/C [14] 95% | viability, T/C [27] 89.7% | viability, T/C [28] 81.9% | viability, T/C [29] 44.7% | viability, T/C (second compound 1 µM, first compound 10 µM) 14.9% | viability, T/C [16] 19.4% | viability, T/C [17] 26.7% | viability, T/C [30] 17.7%
6600 nM: IC50 [2]
7660 nM: IC50 [1]
